Test results from patent US10466233B2, “Genetically encoded probe for quantification of lactate and methods for quantifying metabolic rates and lactate transport” (CENTRO DE ESTUDIOS CIENTIFICOS DE VALDIVIA, priority 2012, dated 2019).

Legend:
MCT [1] = experiment: Intracellular lactate in HEK293 cells after MCT blockage; format: cell-based
Description: (§1) Animals and Cell Cultures.
(§2) Fluorescence Measurements.
The diagram in FIG. 14 illustrates how the intracellular concentration of lactate is determined by the dynamic balance between pyruvate production by glycolysis, pyruvate consumption by mitochondria and lactate exchange through MCTs. In cells that are exporting lactate, perturbation of the steady state by addition of a blocker of the MCT is expected to cause lactate accumulation. In cells that are net lactate importers, an MCT-blocker is expected to cause depletion in intracellular lactate. In both cases, the rate of change will be equal to the rate of lactate production or consumption. […] Phloretin is also known to inhibit GLUT glucose transporters, however this should not compromise the analysis of astrocytes, neurons, or the cell lines so far characterized, which maintain resting intracellular glucose at levels well above the Km of hexokinase (Bittner et al., 2010; Takanaga et al., 2008; Fehr et al., 2003). […]
To further validate methods 2 and 3, the blockers were applied sequentially and a mathematical model based on the kinetic model described in FIG. 14 was fitted to the data. The responses of intracellular lactate to transient inhibitions of the PT with 4-CIN (200 μM) and the MCTs with phloretin (50 μM) were measured in the same HEK293 cell in the presence of 25 mM glucose and no extracellular lactate. […]

[2] = biological target: T1, mitochondrial pyruvate transporter (PT) (Homo sapiens, UniProt O95563+Q9Y5U8); experiment: Intracellular lactate in HEK293 cells after inhibition of the mitochondrial pyruvate transporter; format: cell-based; details: concentration that does not affect MCT function
T1 construct: endogenous in cells; host or cells: HEK293 cells (ATCC) expressing the lactate sensor
T1 sequence (Q9Y5U8 1-109): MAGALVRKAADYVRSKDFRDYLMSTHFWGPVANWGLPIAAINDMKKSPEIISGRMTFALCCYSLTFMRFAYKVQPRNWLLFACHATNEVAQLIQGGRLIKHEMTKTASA
T1 sequence (O95563 1-127): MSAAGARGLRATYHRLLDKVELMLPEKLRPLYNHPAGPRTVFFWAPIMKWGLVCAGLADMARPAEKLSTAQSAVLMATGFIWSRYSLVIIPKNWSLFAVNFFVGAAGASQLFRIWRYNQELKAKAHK
Source text: as §1, §2
Because the reaction catalyzed by LDH is relatively fast, the cytosolic pools of lactate and pyruvate are tightly linked, and variations in pyruvate are faithfully mimicked by lactate. Accordingly, perturbation of the steady-state by addition of a blocker of the mitochondrial pyruvate transporter (PT) will cause intracellular lactate accumulation at a rate equal to the rate of pyruvate consumption by mitochondria.
To further validate methods 2 and 3, the blockers were applied sequentially and a mathematical model based on the kinetic model described in FIG. 14 was fitted to the data. The responses of intracellular lactate to transient inhibitions of the PT with 4-CIN (200 μM) and the MCTs with phloretin (50 μM) were measured in the same HEK293 cell in the presence of 25 mM glucose and no extracellular lactate. The straight lines represent the slopes of the lactate increases fitted by linear regression during the first minute (4-CIN) or during the whole exposure (phloretin). The red line represents the best fit of the kinetic model to the data, as described in Experimental Procedures, assuming full inhibition of the transporters. […] PT and lactate release rates respectively estimated from the initial slopes of lactate increase after transporter inhibition were over 90% of those estimated by modeling. […]

[3] = tested on: oxidative phosphorylation; details: astrocytes, 5 mM
Description: (§5) Animals and Cell Cultures. Animals used were mixed F1 male mice (C57BL/6J×CBA/J), kept in an animal room under Specific Pathogen Free (SPF) conditions at a room temperature of 20±2° C., in a 12/12 h light/dark cycle with free access to food and water. […] Mixed cortical cultures of neuronal and glial cells (1-3 day-old neonates) were prepared as described (Loaiza et al., 2003). […] Cultures were transfected at 60% confluence using Lipofectamine 2000 (Gibco) or alternatively, exposed to 5×10^6 PFU of Ad lactate sensor of the present invention (Vector Biolab), and studied after 24-72 h.
(§6) Fluorescence Measurements. […] Cells were imaged at room temperature (22-25° C.) in a 95% air/5% CO2-gassed solution of the following composition (in mM): 112 NaCl, 1.25 CaCl2, 1.25 MgSO4, 1-2 glucose, 10 HEPES, 24 NaHCO^3, pH 7.4, with 3 mM KCl (astrocytes) or 5 mM KCl (HEK and T98G) using an upright Olympus FV1000 Confocal Microscope equipped with a 20× water immersion objective (N.A. 1.0) and a 440 nm solid-state laser. Alternatively, cells were imaged with an Olympus IX70 or with an Olympus BX51 microscope equipped with a 40× oil-immersion objective (NA 1.3) or with a 20× water-immersion objective (NA 0.95). […]

[4] = biological target: T2, lactate sensor Variant 7: mTFP - full length L1dR from E. coli, no linkers - Venus, SEQ ID NO 7 (Escherichia coli, UniProt P0ACL7); experiment: Fluorescence ratio (FRET) dose-response of purified lactate nanosensor to lactate; format: binding; details: millimolar levels
T2 construct: His tag (inferred from the nickel-resin purification); made in house; host or cells: E. coli BL21 (DE3)
Description: Also surprising was the observation that the DNA-binding domain is important for the FRET change, and that the sensors with no linkers are more responsive (FIG. 4). […] It contains the full length L1dR from E. coli and no linkers. […] The affinity constant of L1dR for L-lactate is not known. […] This unique property of L1dR confers the lactate sensor the desirable ability of reporting across four orders of magnitude (from 1 μM to 10 mM), instead of the two orders afforded by one-site sensors.
(§3) Protein Purification. Plasmid constructs were transformed into E. coli BL21 (DE3). A single colony was inoculated in 100 ml of LB medium with […] ampicillin (without IPTG) and shaken in the dark for 2-3 days. Cells were collected by centrifugation at 5000 rpm (4° C.) for 10 min and disrupted by sonication (Hielscher Ultrasound Technology) in 5 mL of Tris-HCl buffer pH 8.0. A cell-free extract was obtained by centrifugation at 10,000 rpm (4° C.) for 1 hour and filtering of the supernatant (0.45 μm). Proteins were purified using a Nickel resin (His Bin® from Novagen) as recommended by the manufacturer. Eluted proteins were quantified using the Biuret method and stored at −20° C. in 20% glycerol.
as §2

[5] = tested on: monocarboxylate transporter (MCT) in astrocytes; experiment: Astrocytic lactate uptake via MCT monitored with the lactate sensor; format: cell-based, mouse; details: 1 mM lactate
Source text: as §1, §2
(§4) By controlling the exchange of lactate between cells and the interstitial space, MCTs are nodal points of tissue metabolism. MCTs catalyze the stoichiometric translocation of lactate and a proton and their activity can be measured with single-cell resolution by monitoring intracellular pH with a dye such as BCECF. However, 99.9% of protons are bound to proteins, phospholipids and other sites, and are exchanged through many transporters other than the MCT, which makes pH an imperfect proxy for lactate. To compare the performances of the lactate sensor of the present invention and BCECF, we chose astrocytes. When expressed in astrocytes, the lactate sensor of the present invention responded well to extracellular lactate, allowing real-time monitoring of lactate influx and efflux (FIG. 13). […] In contrast, exposure to extracellular lactate produced only a small change in intracellular pH as detected with BCECF (FIG. 15). […] Lactate may also be transported independently of protons through gap junctions (Rouach et al., 2008) and possibly through connexin hemichannels and pannexin channels, fluxes that are invisible to pH measurements and that may now be measured with the present invention.

MCT [6] = experiment: Initial rate of astrocytic lactate uptake measured with the lactate sensor; format: cell-based, mice; details: 1 mM lactate, 50 μM blocker, astrocytes
Source text: as §1, §2, §4

MCT [7] = experiment: Intracellular lactate in astrocytes after MCT blockage; format: cell-based, mice; details: 50 μM
Description: as §1, §2
The diagram in FIG. 14 illustrates how the intracellular concentration of lactate is determined by the dynamic balance between pyruvate production by glycolysis, pyruvate consumption by mitochondria and lactate exchange through MCTs. In cells that are exporting lactate, perturbation of the steady state by addition of a blocker of the MCT is expected to cause lactate accumulation. In cells that are net lactate importers, an MCT-blocker is expected to cause depletion in intracellular lactate. In both cases, the rate of change will be equal to the rate of lactate production or consumption. […] Phloretin is also known to inhibit GLUT glucose transporters, however this should not compromise the analysis of astrocytes, neurons, or the cell lines so far characterized, which maintain resting intracellular glucose at levels well above the Km of hexokinase (Bittner et al., 2010; Takanaga et al., 2008; Fehr et al., 2003). In these cells, glucose consumption remains constant for several minutes in the presence of glucose transporter blockers like phloretin or cytochalasin B (Bittner et al., 2010). Thus, during the first few minutes of phloretin application, the rate of lactate accumulation is not diminished by lack of glucose supply.

[8] = tested on: oxidative phosphorylation in astrocytes; experiment: Rate of lactate production on inhibition of oxidative phosphorylation, measured with the lactate sensor; details: Mus musculus, Astrocyte, read-out: fold increase in the rate of lactate production
Description: as §5, §6

[9] = Fluorescence ratio (mTFP/Venus) response of purified lactate sensor to lactate in vitro; format: binding; details: comparison of sensor variants (FIG. 4)
Description: as §3, §2

N#CC(=Cc1ccc(O)cc1)C(=O)O [Variant 4-CIN, α-Cyano-4-hydroxycinnamate]
block of MCTs (MCT [1]; HEK293 cell, 200 μM, 25 mM glucose, no extracellular lactate): did not block MCTs to a significant extent
effect on intracellular lactate [2]: led to an increase in intracellular lactate

[N-]=[N+]=[N-].[Na+] [azide, sodium azide]
increase in the rate of lactate production [3]: 26±4 fold

OC[C@H]1OC(O)[C@H](O)[C@@H](O)[C@@H]1O (some centres unmarked) [glucose]
change in FRET (specificity) [4]: only lactate induced a significant change in FRET

C[C@H](O)C(=O)O [lactate]
initial rate of astrocytic uptake of lactate [5]: 1.6 ± 0.5 µM/s
change in FRET (specificity) [4]: only lactate induced a significant change in FRET

O=C(CCc1ccc(O)cc1)c1c(O)cc(O)cc1O [phloretin]
inhibition of initial rate of astrocytic lactate uptake (MCT [6]): 96±1%
effect on intracellular lactate (MCT [7]): caused the expected increase in intracellular lactate
effect on intracellular lactate (MCT [1]; HEK293 cells, 50 μM): caused the expected increase in intracellular lactate

[N-]=[N+]=[N-] [sodium azide]
fold induction at 5000 µM [8]: 26 ± 4

Variant 7: Most responsive FRET lactate sensor: mTFP, full length L1dR from E. coli, no linkers, Venus; SEQ ID NO 7
change in fluorescence ratio in response to lactate [9]: most responsive variant
